Strand notation (5' to 3'): a small letter for the sugar, then the base; units joined by * are phosphorothioate-linked, units joined directly phosphodiester-linked; [ ] holds rarer units or linkages, { } end groups; capitals alone tell only the bases. e = 2'-O-(2-methoxyethyl) (MOE); l = locked nucleic acid (LNA); [5mC] = 5-methylcytosine; d = 2'-deoxy (DNA)
Test system: human ABCB11 mRNA
Test: ASO treatment of primary human hepatocytes (PHH), ABCB11 mRNA by RT-qPCR normalized to B2M
Format: cell-based
Conditions: PHHs, Day 3, normalized to untreated PHHs
How it was run: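 ABCB11 mRNA was quantified by Taqman RT-qPCR relative to B2M and expressed as fold over untreated cells. Cells were cryopreserved primary human hepatocytes given ASO in Matrigel-supplemented medium 4 h after plating, at 1.25, 2.5, 5 or 10 μM (5 μM for screening), and harvested after 72 hrs.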

Substance | upregulation of ABCB11 mRNA
CO-3984: ASO targeting the paRNA regRNA RR63 (antisense e[5mC]*eA*eT*eT*eT*eA*eG*eA*eG*eA*e[5mC]*eA*eA*eA*eG*eA*eA*eT*e[5mC]*eG) | approximately 1.5 fold

Same assay, conditions: primary human hepatocytes, 5 μM ASO with PO-modifications, normalized to untreated hepatocytes

Substance | ABCB11 FC mRNA (5 μM ASO vs. untreated) [fold change]
CO-11209 (antisense eT*eGeT*eTeT*eTeG*e[5mC]eT*eTeG*eGeT*e[5mC]eA*eAeG*eAeG*eG) | 1.11
CO-11218 (antisense eG*eTlG*eG*lAeG*l[5mC]*eAlA*eA*l[5mC]eT*lA*eGlG*e[5mC]*lAe[5mC]*eT*eG) | 2.86
CO-11240 (antisense eG*eT*eG*eG*lAeG*e[5mC]*eA*eAlA*e[5mC]*eT*eAeG*lG*e[5mC]*eAe[5mC]*eT*eG) | 1.31
CO-12756 (antisense eG*eTeG*eAeG*eGe[5mC]*eAeT*e[5mC]eA*eGeG*eTeA*eAeG*eTeT*e[5mC]) | 1.33
CO-12746 (antisense eG*eT*eG*eAeGeGe[5mC]*eA*eT*e[5mC]*eA*eG*eG*eTeAeAeG*eT*eT*e[5mC]) | 1.09
CO-12748 (antisense eG*eTeGeAeGeGe[5mC]*eA*eT*e[5mC]*eA*eG*eG*eTeAeAeGeTeT*e[5mC]) | 0.91

Same assay, conditions: primary human hepatocytes, 5 μM ASO, normalized to untreated PHHs (UNT)

Substance | ABCB11 mRNA FC (5 μM ASO vs. UNT) [fold change]
CO-7188: derivative ASO with additional chemical modifications based on parent ASO CO-4535 (antisense eT*eG*eG*l[5mC]*eG*lT*eT*lA*eT*lT*eA*lA*eT*lT*e[5mC]*lT*eA*l[5mC]*eA*eG) | 1.697
CO-7170 (antisense eT*e[5mC]*eT*eT*eA*eT*eT*eT*eG*eG*e[5mC]*eG*eT*eT*eA*eT*eT*eA*eA*eT) | 1.477
CO-7000 (antisense eG*eT*lG*eA*eG*lG*e[5mC]*eA*lT*e[5mC]*eA*lG*eG*eT*lA*eA*eG*lT*eT*e[5mC]) | 1.203
CO-6987 (antisense eT*eG*eG*eA*lT*dG*dT*dA*lG*dA*dT*dG*lA*dA*dT*eG*lG*e[5mC]*eA*eA) | 1.026
CO-7191: derivative ASO with additional chemical modifications based on parent ASO CO-4535 (eT*eG*eG*e[5mC]*lG*eT*eT*eA*lT*eT*eA*eA*lT*eT*e[5mC]*eT*lA*e[5mC]*eA*eG) | 1.676
CO-7181: derivative ASO with additional chemical modifications based on parent ASO CO-4529 (antisense eG*eT*eG*eG*lA*eG*e[5mC]*eA*lA*eA*e[5mC]*eT*lA*eG*eG*e[5mC]*lA*e[5mC]*eT*eG) | 1.603
CO-7050 (antisense eT*eT*eG*eG*eT*eT*e[5mC]*e[5mC]*e[5mC]*e[5mC]*e[5mC]*eT*eG*e[5mC]*eT*eG*eT*eG*e[5mC]*eT) | 1.026
CO-4488 (antisense eA*eA*e[5mC]*eA*eT*eG*eT*e[5mC]*eA*eG*eA*e[5mC]*eA*eG*eT*eA*eG*eT*eT*e[5mC]) | 1.084
CO-3984: ASO targeting the paRNA regRNA RR63 (antisense e[5mC]*eA*eT*eT*eT*eA*eG*eA*eG*eA*e[5mC]*eA*eA*eA*eG*eA*eA*eT*e[5mC]*eG) | 1.111
CO-7058 (antisense eT*e[5mC]*eT*eG*eG*lA*dA*dA*lA*dT*dA*lA*dT*dG*l[5mC]*e[5mC]*eT*eT*eT*e[5mC]) | 1.052
CO-4496 (antisense eG*eT*eA*e[5mC]*eT*eA*eG*eA*e[5mC]*eT*e[5mC]*eT*eG*e[5mC]*e[5mC]*eT*eG*eT*eG*eT) | 0.984
CO-7018 (antisense eA*eA*eG*eT*eG*eA*eG*eG*e[5mC]*eA*eT*e[5mC]*eA*eG*eG*eT*eA*eA*eG*eT*eT*e[5mC]*e[5mC]*eT) | 1.249
CO-7179: derivative ASO with additional chemical modifications based on parent ASO CO-4529 (antisense eG*eT*lG*eG*lA*eG*l[5mC]*eA*lA*eA*l[5mC]*eT*lA*eG*lG*e[5mC]*lA*e[5mC]*eT*eG) | 2.344
CO-4492 (antisense eG*eA*eT*eT*eT*eA*eA*eA*eG*eG*eA*e[5mC]*eT*eG*e[5mC]*eA*eT*eG*eG*e[5mC]) | 1.192
CO-6671 (antisense eT*eT*e[5mC]*eT*eG*eT*eA*eG*eT*eT*eT*eA*eG*eT*eT*eG*eA*e[5mC]*eT*eG) | 1.163
CO-7068 (e[5mC]*eA*eT*eT*eT*lA*dG*dA*lG*dA*d[5mC]*lA*dA*dA*lG*eA*eA*eT*e[5mC]*eG; antisense) | 1.077
CO-4024 (antisense eA*e[5mC]*eT*eT*eA*e[5mC]*eA*eG*eG*eA*eT*eG*e[5mC]*eA*eT*eT*eA*eA*eT*eG) | 0.997
CO-7102 (eT*eA*eT*e[5mC]*eT*eG*eG*dA*dA*dA*dA*dT*dA*dA*dT*dG*d[5mC]*e[5mC]*eT*eT*eT*e[5mC]*eT*eA; antisense) | 1.068
CO-4502 (antisense eA*eA*eA*eT*eGeT*eT*eG*eG*e[5mC]*e[5mC]e[5mC]*eT*eT*eG*eA*eG*eG*eA*eG) | 1.142
CO-4516 (antisense eA*eT*eG*eA*e[5mC]*eA*eT*eG*eA*eT*eA*eG*e[5mC]*eA*e[5mC]*e[5mC]*e[5mC]*eA*eA*e[5mC]) | 1.033

Substance | ABCB11 mRNA FC (5 μM ASO vs. UNT) [fold change]
CO-4526 (antisense eG*e[5mC]*eT*eT*eG*eT*eG*eA*eT*eG*eT*e[5mC]*e[5mC]*eA*eG*eA*eT*eG*eA*e[5mC]) | 1.048
CO-4501 (antisense eG*e[5mC]*eA*eT*eG*eG*eT*eA*eG*e[5mC]*eT*eA*eG*eT*eG*eA*eT*eA*eA*eT) | 1.023
CO-4025 (antisense eA*e[5mC]*eG*e[5mC]*eT*eA*e[5mC]*eA*eA*eT*eA*e[5mC]*eT*eT*eG*eG*eA*eT*eA*eG) | 0.832
CO-7196 (eG*eG*eT*eG*eG*eA*eG*e[5mC]*eA*eA*eA*e[5mC]*eT*eA*eG*eG*e[5mC]*eA*e[5mC]*eT*eG*eA; antisense) | 1.33
CO-7207 (eT*eT*eT*eG*eG*e[5mC]*eG*dT*dT*dA*dT*dT*dA*dA*dT*dT*d[5mC]*eT*eA*e[5mC]*eA*eG*eA*eG; antisense) | 1.221
CO-4525 (antisense eA*e[5mC]*e[5mC]*e[5mC]*eA*e[5mC]*eA*eT*eA*eG*eT*eT*eG*eT*eA*e[5mC]*eT*e[5mC]*eT*e[5mC]) | 0.995
CO-6976 (antisense eT*e[5mC]*e[5mC]*eT*eG*eA*eA*eG*eT*eG*eG*eA*eG*eG*eT*eG*eG*eT*eG*eG) | 1.373
CO-4523 (antisense eT*e[5mC]*eT*eG*e[5mC]*eA*eA*eA*eT*eT*eA*eA*eG*eA*eA*eG*e[5mC]*eA*e[5mC]eT) | 1.037
CO-6673 (antisense eG*eA*eA*eG*eG*dA*d[5mC]*dA*d[5mC]*dA*dA*dT*dT*dT*d[5mC]*eT*eG*eT*eA*eG) | 1.313
CO-7147 (antisense e[5mC]*eT*eT*eA*lG*eG*eA*eG*eG*lA*eT*eT*eA*eT*lT*eT*eA*eA*e[5mC]*e[5mC]) | 1.272
CO-4486 (antisense eG*eG*eA*e[5mC]*eT*eG*e[5mC]*eG*eT*eG*eA*e[5mC]*eT*e[5mC]*eA*eG*eG*eT*eT*eA) | 1.151
CO-4051 (antisense eG*eA*e[5mC]*eT*eT*eT*eT*eG*eA*eG*e[5mC]*eA*eA*eG*eG*e[5mC]*eT*eG*eT*eT) | 0.908
CO-4016 (antisense eT*eT*eT*eT*eA*eA*e[5mC]*eT*eT*eG*eG*e[5mC]*eT*eT*eT*eG*eT*eG*eA*eA) | 1.294
CO-7041 (antisense eG*eT*e[5mC]*eA*eA*eG*eA*eGeG*eA*eA*eA*eG*eA*eA*e[5mC]*eT*eG*eG*e[5mC]) | 1.15
CO-7016 (antisense eA*eG*eT*eG*eA*lG*dG*d[5mC]*lA*dT*d[5mC]*dA*dG*lG*dT*dA*lA*eG*eT*eT*e[5mC]*e[5mC]) | 1.278
CO-4050 (antisense e[5mC]*eA*eA*eA*eT*eG*eT*eT*e[5mC]*eT*eT*eT*eT*eA*eG*eG*eG*eT*eA*eT) | 0.968
CO-6978 (antisense eG*eA*eG*eG*e[5mC]*eA*eT*e[5mC]*eA*eG*eG*eT*eA*eA*eG*eT*eT*e[5mC]*e[5mC]*eT) | 1.456
CO-7151: derivative ASO with additional chemical modifications based on parent ASO CO-4517 (antisense e[5mC]*e[5mC]*eT*eT*eA*lG*dG*dA*lG*dG*dA*dT*dT*lA*dT*dT*lT*eA*eA*e[5mC]*e[5mC]*eT) | 1.498
CO-3993 (antisense eG*e[5mC]*e[5mC]*e[5mC]*e[5mC]*eT*eT*eG*eA*eA*eT*eA*eA*eT*eT*eT*eT*eT*eG*eT) | 1

Source: patent publication US20250320496A1, “MODULATION OF ABCB11 GENE TRANSCRIPTION USING ANTISENSE OLIGONUCLEOTIDES TARGETING REGULATORY RNAS” (CAMP4 Therapeutics Corporation, priority 2022, published 2025)
